The record followed here is patent US20250034116A1, “1,4-DIHETEROCYCLIC SUBSTITUTED AROMATIC RING OR AROMATIC HETEROCYCLIC COMPOUND AND USE THEREOF” (BeBetter Med Inc., priority 2022, published 2025).

The term IC50 denotes the point on the concentration scale where inhibition reaches its midpoint. One may read the AUC(0-inf) as the area under the concentration-time curve extrapolated to infinity. For orientation: Cmax means the maximum level reached in the sampled fluid or tissue. The Tmax is the time at which the peak concentration occurs. In general, half-life refers to the time in which the quantity being followed falls by half.

Chain of recombinant CYP4A11 (rCYP4A11) (Q02928 5-519): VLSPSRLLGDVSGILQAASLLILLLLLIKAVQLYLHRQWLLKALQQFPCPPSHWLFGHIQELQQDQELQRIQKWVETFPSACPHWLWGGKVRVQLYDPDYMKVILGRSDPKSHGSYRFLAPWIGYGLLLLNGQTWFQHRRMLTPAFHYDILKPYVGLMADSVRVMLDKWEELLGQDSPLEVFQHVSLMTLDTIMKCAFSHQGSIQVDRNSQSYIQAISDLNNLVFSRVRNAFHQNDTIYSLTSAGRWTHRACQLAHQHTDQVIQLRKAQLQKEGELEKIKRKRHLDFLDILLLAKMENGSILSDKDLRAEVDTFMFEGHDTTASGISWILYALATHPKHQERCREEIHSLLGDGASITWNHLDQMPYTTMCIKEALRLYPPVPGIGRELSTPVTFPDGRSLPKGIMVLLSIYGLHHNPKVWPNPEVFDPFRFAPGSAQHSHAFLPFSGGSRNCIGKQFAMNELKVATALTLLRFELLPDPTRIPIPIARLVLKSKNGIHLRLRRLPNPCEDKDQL

In one data set the test system is CYP enzymes in human liver microsomes (HLM). Kind of data set: Inhibition of 20-HETE production in human liver microsomes (HLM). In kind it is biochemical.
Settings: not given
The procedure, abridged: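 LC-MS/MS read-out of 20-HETE formation, expressed as activity relative to no-inhibitor control and fitted to a Hill equation for IC50; percent inhibition also given at 1000, 500 or 100 nM. Enzyme sources: recombinant CYP4F2, recombinant CYP4A11, or human or mouse liver microsomes. Each is combined with compound and substrate (400 μM solution) and warmed 10 min at 37 °C, then incubated 25 min at 37 °C after adding NADPH (6 mM solution).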
On the technique in general: Liver microsomes are vesicles of endoplasmic reticulum, rich in cytochrome P450 enzymes.
Take `O=C1CCCN1CC1CCN(c2c(F)cc(-c3cn[nH]c3)cc2F)CC1` [Compound 5, 1-((1-(2,6-difluoro-4-(1H-pyrazol-4-yl)phenyl)piperidin-4-yl)methyl)pyrrolidin-2-one]: the half-inhibitory concentration (IC50) worked out at 28.1 nM.
On the same count and under the same terms, then `O=C1CCCCN1CC1CCN(c2ccc(-c3cn[nH]c3)cc2)CC1` [Compound 25, 1-((1-(4-(1H-pyrazol-4-yl)phenyl)piperidin-4-yl)methyl)piperidin-2-one], with 29.3 nM.
As to `O=C1CCCCN1CC1CCN(c2c(F)cc(-c3cn[nH]c3)cc2F)CC1` [Compound 27, 1-((1-(2,6-difluoro-4-(1H-pyrazol-4-yl)phenyl)piperidin-4-yl)methyl)piperidin-2-one], the IC50 was 26 nM.

The data set is the same for the next values; noted with them: 500 nM.
Take `O=C1CCCN1CC1CCN(c2c(F)cc(-c3cn[nH]c3)cc2F)CC1` [Compound 5, 1-((1-(2,6-difluoro-4-(1H-pyrazol-4-yl)phenyl)piperidin-4-yl)methyl)pyrrolidin-2-one]: the “HLM (% inh @ 500 nM)” value stood at 81.03%.
Still for that read-out and setting: the same measure for `O=C1CCCCN1CC1CCN(c2ccc(-c3cn[nH]c3)cc2)CC1` [Compound 25, 1-((1-(4-(1H-pyrazol-4-yl)phenyl)piperidin-4-yl)methyl)piperidin-2-one]: 80.65%.
On the same count and under the same terms, then `O=C1CCCCN1CC1CCN(c2c(F)cc(-c3cn[nH]c3)cc2F)CC1` [Compound 27, 1-((1-(2,6-difluoro-4-(1H-pyrazol-4-yl)phenyl)piperidin-4-yl)methyl)piperidin-2-one], with 88.87%.

In a further data set the target is recombinant CYP4F2 (rCYP4F2) (Homo sapiens (Human), UniProt P78329). Kind of data set: Inhibition of 20-HETE production by recombinant CYP4F2. In kind it is biochemical.
Chain of recombinant CYP4F2 (rCYP4F2) (P78329 5-520): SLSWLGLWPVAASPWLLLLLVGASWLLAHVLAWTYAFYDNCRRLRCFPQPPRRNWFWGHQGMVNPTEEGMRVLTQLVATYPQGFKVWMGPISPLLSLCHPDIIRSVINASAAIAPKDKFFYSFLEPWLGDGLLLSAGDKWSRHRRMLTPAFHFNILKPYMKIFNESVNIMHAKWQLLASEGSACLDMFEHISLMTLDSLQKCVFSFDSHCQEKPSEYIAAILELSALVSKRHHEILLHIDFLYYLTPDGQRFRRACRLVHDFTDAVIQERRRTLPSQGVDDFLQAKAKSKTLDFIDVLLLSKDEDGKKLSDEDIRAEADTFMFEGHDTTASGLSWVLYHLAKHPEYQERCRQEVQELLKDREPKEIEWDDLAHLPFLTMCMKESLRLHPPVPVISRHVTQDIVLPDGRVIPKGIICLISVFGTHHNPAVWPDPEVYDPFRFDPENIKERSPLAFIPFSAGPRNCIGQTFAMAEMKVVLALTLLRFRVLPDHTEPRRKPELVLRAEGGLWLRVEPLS
Settings: not given
Here is the method: (§1) Experimental principle: The inhibitory activity of 20-HETE production is evaluated by testing the inhibitory effects of the compound on human liver microsomes (HLM), rat liver microsomes (RLM), mouse liver microsomes (MLM), or […] CYP4 subtype enzymes (CYP4F2). This assay employs HLM, RLM, or MLM along with recombinant CYP4F2 (rCYP4F2) and recombinant CYP4A11 (rCYP4A11), which are […] CYP4 subtype enzymes, to detect the effects of the test compound at different concentrations on the metabolic rate of enzyme-specific substrates, to determine the inhibitory effects of the test compound on CYP enzymes in HLM, RLM, or MLM.
(§2) Experimental methods: Dissolve the test compound in DMSO, and subsequently dilute it with an acetonitrile and DMSO mixture (3:1). Add 2 μl of varying concentrations of the test compound and 100 μl of potassium phosphate buffer containing either liver microsomes or recombinant enzymes to a 96-well plate. After mixing well, transfer 30 μl to another well (in duplicate), add 15 μl of 400 μM substrate solution, and mix well again. Preheat at 37° C. for 10 minutes, and then add 15 μl of 6 mM NADPH and incubate at 37° C. for 25 minutes. After 25 minutes, add 160 μl of acetonitrile solution (containing 0.1 μg/ml internal standard) to stop the reaction. Mix well, centrifuge at 3500 g for 15 minutes, and then analyze the supernatant using LC-MS/MS.
(§3) Plot the compound concentration on the x-axis and the inhibition rate on the y-axis to draw the curve. Use GraphPad Prism 5 software to fit the curve and calculate the IC50. The formula is Y=Bottom+(Top−Bottom)/(1+10^((Log IC50−X)×HillSlope)). X represents the logarithmic concentration of the inhibitor, and Y represents the relative enzyme activity at a given inhibitor concentration (relative to the condition without the inhibitor).
(§4) Calculate the inhibition percentages at concentrations of 1000 nM, 500 nM, or 100 nM as well as the half-maximal inhibitory concentration (IC50) of the test compound from the above experiment.
Take `O=C1CCCN1CC1CCN(c2c(F)cc(-c3cn[nH]c3)cc2F)CC1` [Compound 5, 1-((1-(2,6-difluoro-4-(1H-pyrazol-4-yl)phenyl)piperidin-4-yl)methyl)pyrrolidin-2-one]: the IC50 was determined as 24.9 nM.

Still in this data set, the particulars now being: read-out: rCYP4F2 (% inh @ 100 nM).
With `O=C1CCCN1CC1CCN(c2c(F)cc(-c3cn[nH]c3)cc2F)CC1` [Compound 5, 1-((1-(2,6-difluoro-4-(1H-pyrazol-4-yl)phenyl)piperidin-4-yl)methyl)pyrrolidin-2-one], the inhibition at 0.1 µM came out at 71.1%.
Consider `O=C1CCCCN1CC1CCN(c2ccc(-c3cn[nH]c3)cc2)CC1` [Compound 25, 1-((1-(4-(1H-pyrazol-4-yl)phenyl)piperidin-4-yl)methyl)piperidin-2-one], for which the inhibition at 0.1 µM turned out to be 56%.
On the same count and under the same terms, then `O=C1CCCCN1CC1CCN(c2c(F)cc(-c3cn[nH]c3)cc2F)CC1` [Compound 27, 1-((1-(2,6-difluoro-4-(1H-pyrazol-4-yl)phenyl)piperidin-4-yl)methyl)piperidin-2-one], with 78.4%.

A further data set concerns the target recombinant CYP4A11 (rCYP4A11) (Homo sapiens (Human), UniProt Q02928). In words: Inhibition of 20-HETE production by recombinant CYP4A11. In kind it is biochemical.
Settings: not given
The protocol: as §1, §2, §3, §4
On to `O=C1CCCN1CC1CCN(c2c(F)cc(-c3cn[nH]c3)cc2F)CC1` [Compound 5, 1-((1-(2,6-difluoro-4-(1H-pyrazol-4-yl)phenyl)piperidin-4-yl)methyl)pyrrolidin-2-one], for which the concentration for half-maximal inhibition (IC50) was 39.6 nM.

The data set is the same for the next values; noted with them: read-out: rCYP4A11 (% inh @ 100 nM).
As for `O=C1CCCCN1CC1CCN(c2ccc(-c3cn[nH]c3)cc2)CC1` [Compound 25, 1-((1-(4-(1H-pyrazol-4-yl)phenyl)piperidin-4-yl)methyl)piperidin-2-one], the inhibition at 0.1 µM came to 30.6%.
Still for that read-out and setting: then `O=C1CCCCN1CC1CCN(c2c(F)cc(-c3cn[nH]c3)cc2F)CC1` [Compound 27, 1-((1-(2,6-difluoro-4-(1H-pyrazol-4-yl)phenyl)piperidin-4-yl)methyl)piperidin-2-one], with 52.3%.

A further data set concerns CYP enzymes in rat liver microsomes (RLM). In words: Inhibition of 20-HETE production in rat liver microsomes (RLM). In kind it is biochemical.
Settings: not given
The procedure, abridged:
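Test compounds were dissolved in DMSO, diluted in acetonitrile/DMSO (3:1), and 2 μl was mixed with 100 μl potassium phosphate buffer containing rat liver microsomes in a 96-well plate. Duplicate 30 μl aliquots received 15 μl of 400 μM substrate, were preheated at 37° C. for 10 minutes, then started with 15 μl of 6 mM NADPH for 25 minutes. LC-MS/MS measured 20-HETE formation.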
For the compound `O=C1CCCN1CC1CCN(c2c(F)cc(-c3cn[nH]c3)cc2F)CC1` [Compound 5, 1-((1-(2,6-difluoro-4-(1H-pyrazol-4-yl)phenyl)piperidin-4-yl)methyl)pyrrolidin-2-one], it took 44.2 nM to reach half-maximal inhibition (IC50).
Consider `O=C1CCCCN1CC1CCN(c2ccc(-c3cn[nH]c3)cc2)CC1` [Compound 25, 1-((1-(4-(1H-pyrazol-4-yl)phenyl)piperidin-4-yl)methyl)piperidin-2-one], for which half-maximal inhibition (IC50) required 159 nM.
Same read-out and setting: the same measure for `O=C1CCCCN1CC1CCN(c2c(F)cc(-c3cn[nH]c3)cc2F)CC1` [Compound 27, 1-((1-(2,6-difluoro-4-(1H-pyrazol-4-yl)phenyl)piperidin-4-yl)methyl)piperidin-2-one]: 23.3 nM.

The same data set, now with this note: 500 nM.
In the case of `O=C1CCCN1CC1CCN(c2c(F)cc(-c3cn[nH]c3)cc2F)CC1` [Compound 5, 1-((1-(2,6-difluoro-4-(1H-pyrazol-4-yl)phenyl)piperidin-4-yl)methyl)pyrrolidin-2-one], the “RLM (% inh @ 500 nM)” value was 66.71%.
As to `O=C1CCCCN1CC1CCN(c2ccc(-c3cn[nH]c3)cc2)CC1` [Compound 25, 1-((1-(4-(1H-pyrazol-4-yl)phenyl)piperidin-4-yl)methyl)piperidin-2-one], the “RLM (% inh @ 500 nM)” value amounted to 61.49%.

A further data set concerns CYP enzymes in mouse liver microsomes (MLM). In words: Inhibition of 20-HETE production in mouse liver microsomes (MLM). In kind it is biochemical.
Settings: not given
The protocol: as §1, §2, §3, §4
Consider `O=C1CCCN1CC1CCN(c2c(F)cc(-c3cn[nH]c3)cc2F)CC1` [Compound 5, 1-((1-(2,6-difluoro-4-(1H-pyrazol-4-yl)phenyl)piperidin-4-yl)methyl)pyrrolidin-2-one], for which the IC50 was 946 nM.
Same read-out and setting: then `O=C1CCCCN1CC1CCN(c2ccc(-c3cn[nH]c3)cc2)CC1` [Compound 25, 1-((1-(4-(1H-pyrazol-4-yl)phenyl)piperidin-4-yl)methyl)piperidin-2-one], with 766 nM; and `O=C1CCCCN1CC1CCN(c2c(F)cc(-c3cn[nH]c3)cc2F)CC1` [Compound 27, 1-((1-(2,6-difluoro-4-(1H-pyrazol-4-yl)phenyl)piperidin-4-yl)methyl)piperidin-2-one], with 1150 nM.

Test system in the next data set: not listed separately
In words: Pharmacokinetic (PK) experiment, oral administration in rats. Conditions: 20 mg/kg. Format: in vivo, Male SD rats. Here is the method:
Male SD rats, weighing 180-250 grams, were fasted overnight before testing. The test compound was dissolved in 30% sulfobutylether-β-cyclodextrin and administered orally at a dose of 20 mg/kg. Blood was collected from the tail vein at 15 minutes, 30 minutes, and 1, 2, 4, 6, 8, and 24 hours after administration. Approximately 0.3 ml of blood was collected at each time point, placed in a centrifuge tube containing K2-EDTA, and centrifuged (2000 g for 10 minutes at 4° C.) to take the plasma, which was then stored in an ultra-low temperature freezer at −70° C. or below. A 50 μL plasma sample was mixed with 135 μL of acetonitrile (containing 0.5 μg/mL internal standard) and vortexed for protein precipitation. After centrifugation, the supernatant was taken for LC-MS/MS analysis.
On to `O=C1CCCN1CC1CCN(c2c(F)cc(-c3cn[nH]c3)cc2F)CC1` [Compound 5, 1-((1-(2,6-difluoro-4-(1H-pyrazol-4-yl)phenyl)piperidin-4-yl)methyl)pyrrolidin-2-one], for which the “absorption and blood exposure after oral administration (in words)” value is “well absorbed and exhibit high blood exposure”.

The same data set, now with this note: male, SD, rat, plasma, 20 mg/kg.
As for `O=C1CCCN1CC1CCN(c2c(F)cc(-c3cn[nH]c3)cc2F)CC1` [Compound 5, 1-((1-(2,6-difluoro-4-(1H-pyrazol-4-yl)phenyl)piperidin-4-yl)methyl)pyrrolidin-2-one], the total exposure AUC(0-inf) was found to be 124 µg·h/mL, the highest level (Cmax) was 9270 ng/mL, the Tmax was determined as 2.67 h and the half-life is 8.11 h.

Staying with this data set, now noted: male, SD, rat, plasma, 20 mg/kg, read-out: AUC0-24.
With `O=C1CCCN1CC1CCN(c2c(F)cc(-c3cn[nH]c3)cc2F)CC1` [Compound 5, 1-((1-(2,6-difluoro-4-(1H-pyrazol-4-yl)phenyl)piperidin-4-yl)methyl)pyrrolidin-2-one], the AUC(0-t) turned out to be 103 µg·h/mL.
